Experimental findings from patent US7026349B2, “Sulfonamides” (SmithKline Beecham Corporation, priority 2001, dated 2006) are described below.

SMILES strings stand for the structures.

The test concerns the target T1, human and rat GPR-14 (UniProt Q9UKP6).
T1 sequence (Q9UKP6 1-389): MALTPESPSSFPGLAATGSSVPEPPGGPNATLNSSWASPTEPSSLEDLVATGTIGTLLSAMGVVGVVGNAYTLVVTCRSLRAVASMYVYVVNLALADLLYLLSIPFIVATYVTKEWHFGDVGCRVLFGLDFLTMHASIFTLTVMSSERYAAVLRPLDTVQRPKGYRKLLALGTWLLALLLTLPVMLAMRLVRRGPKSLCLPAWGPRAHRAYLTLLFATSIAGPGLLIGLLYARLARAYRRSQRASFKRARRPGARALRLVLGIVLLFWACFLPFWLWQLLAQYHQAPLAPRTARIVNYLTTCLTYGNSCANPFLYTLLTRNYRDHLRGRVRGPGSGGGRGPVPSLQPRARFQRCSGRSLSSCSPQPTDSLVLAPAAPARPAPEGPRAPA
As to the kind of experiment: Radioligand binding ([125I] h-U-II) to HEK-293 cell membranes containing cloned GPR-14. The conditions noted are these: stable cloned GPR-14, 200 pM [125I] h-U-II, species of receptor not given.

In general, Ki refers to the dissociation constant of the complex between target and ligand, obtained from inhibition or displacement. Lower therefore signals a stronger hold on the target. Compound `COc1cc(Br)c(S(=O)(=O)Nc2ccc(Cl)c(O[C@H]3CCN(C)C3)c2)cc1OC` [Example 10, 2-Bromo-N-[4-chloro-3-((S)-1-methyl-pyrrolidin-3-yloxy)-phenyl]-4,5-dimethoxy-benzenesulfonamide] displayed an inhibition constant (Ki) of 270 nM.
